In patent publication US20250345383A1, “INTRANASAL ADMINISTRATION OF POLYSULFIDE” (The General Hospital Corporation, priority 2022, published 2025):

What was measured:
[1] = tested on: sulfane sulfur in lumbar spinal cord; experiment: Relative sulfane sulfur levels in lumbar spinal cords after SCI (SSip-1); assay type: in vivo, mouse; conditions: 48 hours after SCI; intranasal GSSSG; sham set to 1.00±0.30, vehicle alone 0.56±0.13; mean ± SD
Method: Lumbar spinal cords were harvested 48 hours after surgery and snap-frozen in liquid nitrogen. Spinal cords were subsequently homogenized in Hanks' balanced salt solution (HBSS; Thermo Fisher Scientific, Waltham, MA, USA) containing SSip-1 (5 μM), incubated at room temperature in the dark for 20 minutes, and then subjected to centrifugation. SSip-1 was synthesized and provided by the Hanaoka laboratory^38. The fluorescence intensities of supernatants were measured using a microplate reader (SpectraMax M5; Molecular Devices, San Jose, CA, USA) at the wavelength of λex/λem=491 nm/525 nm. The fluorescence intensities were normalized to the weights of the spinal cord.

[2] = tested on: primary cortical neurons; experiment: Cell viability after oxygen and glucose deprivation/reoxygenation (OGD/R), primary cortical neurons; assay type: cell-based, mouse
Method: Primary cortical neurons were isolated from the cerebral cortices of C57BL/6J mice of both sexes at embryonic day 15, as previously described 39. Primary cortical neurons were maintained at 37° C. in a humidified tissue culture chamber with 5% CO2 and cells were used on day 11 after harvest. […] After reoxygenation, cell viability and cell injury were assessed using crystal violet and lactate dehydrogenase (LDH) assays, as previously described^39.

[3] = tested on: SH-SY5Y cells; experiment: Cell viability of SH-SY5Y cells incubated with MPP+ (crystal violet assay); assay type: cell-based, human; conditions: MPP+ 5 mM, 24 h; 10 μM each
Method: (§1) Cell viability assays was performed to examine cell viabilities of SH-SY5Y cells or murine primary cortical neurons 24 h after the addition of MPP^+ (5 mM for SH-SY5Y, 50 μM for primary cortical neurons) with vehicle (PBS), Na2S (Sigma-Aldrich), Na2S3 (Dojindo Molecular Technologies, Inc), GSSSG (Glutathione trisulfide, Kyowa Hakko Bio Co., Ltd., Tokyo, Japan), LA (α-Lipoic acid, Sigma-Aldrich) or LASSS (α-Lipoic acid trisulfide, Kyowa Hakko Bio Co., Ltd., Tokyo, Japan). Cell viability was measured using the crystal violet assay.

[4] = tested on: murine primary cortical neurons; experiment: Cell viability of murine primary cortical neurons incubated with MPP+ (crystal violet assay); assay type: cell-based, mouse; conditions: MPP+ 50 μM, 24 hours
Method: as §1

[5] = tested on: MPTP-treated mice; experiment: MPTP-induced Parkinson's disease model in mice (tyrosine hydroxylase immunoblot); assay type: in vivo, mouse; conditions: GSSSG 50 mg/kg intranasal on day 0 and every 12 hours days 1-6; harvested 7 days after MPTP
Method: Intermittent H2S Inhalation—Sulfide Pre-Conditioning (SPC) We previously reported that breathing H2S at 80 ppm markedly increases plasma and brain levels of H2S and thiosulfate, an oxidative product of H2S.^50,51 Male C57BL6/J mice breathed air alone and air mixed with 80 ppm H2S (Airgas Inc., Radnor, PA) for 4 h each day for 5 consecutive days in custom-made plastic chambers. The H2S breathing session was performed from 8 AM until 12 PM from Day 1 through Day 5 as previously described^51 (FIG. 1). H2S concentration, as well as FiO2, was continuously measured using a portable gas monitor (VENTIS MX4 Multi-Gas Monitor, Industrial Scientific Corporation, Oakdale. PA).
Male C57BL6/J and CD-1 mice received four intraperitoneal injections of MPTP (20 mg/kg) or saline every 2 h for a total of four doses of MPTP (total, 80 mg/kg) or equivalent amount of saline, as previously described 3. […] Then, tyrosine hydroxylase protein levels were detected by immunoblotting.
To determine the effects of polysulfide on the loss of tyrosine hydroxylase in the substantia nigra and striatum in mice treated with MPTP, we administered GSSSG (50 mg/kg) or saline via intranasal route immediately after the first and the third injection of MPTP on Day 0. […] Then, tyrosine hydroxylase protein levels were detected by immunoblotting.

Compound: N[C@@H](CCC(=O)N[C@@H](CSSSC[C@H](NC(=O)CC[C@H](N)C(=O)O)C(=O)NCC(=O)O)C(=O)NCC(=O)O)C(=O)O [GSSSG, glutathione trisulfide]
- relative sulfane sulfur levels in lumbar spinal cord [1]: 1.37±0.50
- cell survival after OGD/R ([2]; GSSSG 100 μM): failed to improve cell survival
- release of LDH after OGD/R ([2]; GSSSG at 30 μM or 60 μM, vs vehicle-only treated cells): decreased release of LDH
- cell viability after OGD/R, crystal violet assay (GSSSG, GSH, GSSG comparison) ([2]; GSSSG at 30 μM, GSH at 60 μM, GSSG at 30 μM, vs vehicle-only treated cells): improved cell viability
- cell viability after OGD/R, crystal violet assay ([2]; GSSSG at 30 μM, vs vehicle-only treated cells): increased cell viability
- viability of MPP+-treated SH-SY5Y cells [3]: increased the viability
- protection of murine primary cortical neurons from the effects of MPP+ treatment [4]: protected
- tyrosine hydroxylase in the nigrostriatal region [5]: prevented the MPTP-induced decrease in tyrosine hydroxylase
